# In US5795861A, “Methods for regulating gastrointestinal motility” (Amylin Pharmaceuticals Inc., priority 1995, dated 1998):
# Columns and labels:
# [1] = solubility and stability compared to human amylin; format: physicochemical
# [2] = plasma AC-0137 levels after IV bolus or infusion (clinical study); format: in vivo, human; conditions: after IV bolus injection
# Excerpt: Subjects in each dose group underwent a two period crossover to examine intravenous (IV) bolus versus IV infusion of drug. Each period consisted of a three-day confinement to the study unit. On each occasion, the initial day of confinement was allowed for acclimatization to the study unit. The second and third days constituted an imbedded crossover of placebo versus active medication. […] An imbedded cross-over design for the administration of drug and placebo on Days 2 and 3 of this admission was employed in a manner similar to that used during the first admission. The six subjects assigned to the placebo group received placebo on each of the study days.
# On study days, intravenous catheters were inserted at least 30 minutes prior to the start of the study. 15 minutes before dosing, the subjects took their usual insulin dose via subcutaneous injection. […] The infusion rate was designed to administer the assigned amount of drug over the two hour period. Thirty minutes later, the subjects ingested their normal breakfasts.
structure (smiles),measurement,setting,value
"CC[C@H](C)[C@H](NC(=O)[C@@H]1CCCN1C(=O)CNC(=O)[C@H](Cc1ccccc1)NC(=O)[C@H](CC(N)=O)NC(=O)[C@H](CC(N)=O)NC(=O)[C@H](CO)NC(=O)[C@H](CO)NC(=O)[C@H](Cc1c[nH]cn1)NC(=O)[C@@H](NC(=O)[C@H](CC(C)C)NC(=O)[C@H](Cc1ccccc1)NC(=O)[C@H](CC(N)=O)NC(=O)[C@H](C)NC(=O)[C@H](CC(C)C)NC(=O)[C@H](CCCNC(=N)N)NC(=O)[C@H](CCC(N)=O)NC(=O)[C@@H](NC(=O)[C@H](C)NC(=O)[C@@H]1CSSC[C@H](NC(=O)[C@@H](N)CCCCN)C(=O)N[C@@H](CC(N)=O)C(=O)N[C@@H]([C@@H](C)O)C(=O)N[C@@H](C)C(=O)N[C@@H]([C@@H](C)O)C(=O)N1)[C@@H](C)O)C(C)C)C(=O)N[C@@H](CC(C)C)C(=O)N1CCC[C@H]1C(=O)N1CCC[C@H]1C(=O)N[C@H](C(=O)N[C@@H](CC(N)=O)C(=O)N[C@H](C(=O)NCC(=O)N[C@@H](CO)C(=O)N[C@@H](CC(N)=O)C(=O)N[C@H](C(=O)N[C@@H](Cc1ccc(O)cc1)C(N)=O)[C@@H](C)O)C(C)C)[C@@H](C)O [AC-0137, ^25,28,29 Pro-h-amylin]",solubility and stability characteristics,[1],more desirable solubility and stability characteristics
same,disappearance of drug from the plasma compartment,[2],apparent first-order kinetics
